Target: T1, MloK1 (Mesorhizobium japonicum, UniProt Q98GN8)
T1 sequence (Q98GN8 1-355): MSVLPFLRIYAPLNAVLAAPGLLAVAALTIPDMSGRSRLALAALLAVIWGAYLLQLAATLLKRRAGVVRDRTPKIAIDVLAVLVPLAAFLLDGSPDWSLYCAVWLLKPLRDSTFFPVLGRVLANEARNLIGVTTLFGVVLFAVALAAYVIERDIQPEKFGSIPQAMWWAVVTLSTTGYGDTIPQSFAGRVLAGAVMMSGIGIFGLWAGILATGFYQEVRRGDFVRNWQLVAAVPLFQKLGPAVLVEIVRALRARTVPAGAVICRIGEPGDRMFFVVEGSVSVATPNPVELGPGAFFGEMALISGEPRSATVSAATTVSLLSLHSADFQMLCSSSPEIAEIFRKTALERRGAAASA
Experiment: […]+ uptake into MloK1-reconstituted liposomes, dose-response
Type: biochemical

With `Nc1nc2c(ncn2[C@@H]2O[C@@H]3COP(=O)(O)O[C@H]3[C@H]2O)c(=O)[nH]1` [cGMP] the EC50 was 600 nM.
